Reference: patent US20120225862A1, “HETEROARYL BENZAMIDES, COMPOSITIONS AND METHODS OF USE” (AUCKLAND UNIVSERVICES LIMITED, priority 2009, published 2012)

Columns and labels:
RCC4/VHL = assay: XTT IC50 assay, selectivity RCC4 versus RCC4 with VHL-reintroduced; type: cell-based, human; details: selectivity ratio of XTT IC50 values, RCC4 vs RCC4/VHL
Protocol: (§1) RCC4 parental and RCC4 with VHL-reintroduced (RCC4/VHL), SN12C and SN12C-CSCG-VHL shRNA were maintained in DMEM supplemented with 10% FCS.
(§2) IC50 values for compounds were determined by XTT assay. For 2,3-bis[2-methoxy-4-nitro-5-sulfophenyl]-2H-tetrazolium-5-carboxanilide inner salt (XTT) assays, five thousand cells were plated in 96-well plates. The next day, vehicle or drug was added to each well and incubated for four days. Media was aspirated and phenol red-free medium with 0.3 mg/mL XTT and 2.65 ug/mL N-methyl dibenzopyrazine methyl sulfate was added. This was incubated at 37° C. for 1-2 hours and absorbance was read at 450 nm. IC50 values for each compound were calculated using linear interpolation.
(§3) For 2,3-bis[2-methoxy-4-nitro-5-sulfophenyl]-2H-tetrazolium-5-carboxanilide (XTT) assays, five thousand cells were plated in 96-well plates. The next day, vehicle (DMSO) or drug was added by serial dilution. Four days later, media were aspirated, XTT solution (0.3 mg/ml of XTT (Sigma), 2.65 mg/ml N-methyl dibenxopyrazine methyl sulfate (Simga) in phenol red-free media) was added, and the plates were incubated at 37° C. for 1-2 hours. Metabolism of XTT was quantified by measuring the absorbance at 450 nm. IC50s were calculated using linear interpolation. For clonogenic survival assays, three hundred cells were plated per 60 mm tissue culture dish. The cells were allowed to attach overnight and then treated with vehicle or drug for 14 days. Colonies were fixed and stained with crystal violet (0.1% crystal violet in 95% ethanol). All conditions were measured in triplicate and each experiment was done in duplicate or triplicate. To determine necrosis, cells were treated with drug for a given time point. Media and cells were collected, centrifugated, and resuspended in 0.4% trypan blue (Invitrogen). Live and dead cells were counted on a hematocytometer.

RCC4 = assay: XTT IC50 / viability assay, RCC4 cells; type: cell-based, human; details: Homo sapiens, RCC4, 96 h; XTT assay, four days
Protocol: as §1, §2, §3

O=C(Nc1cccnc1)c1ccc(CNS(=O)(=O)c2ccc(-c3ccc(F)cc3)cc2)cc1 [Example 55, 4-({[(4′-Fluoro[1,1′-biphenyl]-4-yl)sulfonyl]amino}methyl)-N-(3-pyridinyl)benzamide]
Ratio (RCC4:RCC/VHL) (RCC4/VHL): b (“b” reflects from 10 to 100) | IC50 (RCC4): < 1 µM

O=C(Nc1cccnc1)c1ccc(CNS(=O)(=O)c2ccc3ccccc3c2)cc1 [Example 72, 4-((Naphthalene-2-sulfonamido)methyl)-N-(pyridin-3-yl)benzamide]
Ratio (RCC4:RCC/VHL) (RCC4/VHL): b (“b” reflects from 10 to 100) | IC50 (RCC4): 1 to 20 µM

Cc1cc(C)cc(COC(=O)NCc2ccc(C(=O)Nc3cccnc3)cc2)c1 [Compound A, reference compound]
Ratio (RCC4:RCC/VHL) (RCC4/VHL): a (“a” reflects a ratio of RCC4/RCC-VHL+ ranging from 1 to 10) | IC50 (RCC4): > 20 µM

Cc1nc(-c2cccc(S(=O)(=O)NCc3ccc(C(=O)Nc4cccnc4)cc3)c2)cs1 [Example 31, 4-[({[3-(2-Methyl-1,3-thiazol-4-yl)phenyl]sulfonyl}amino)methyl]-N-(3-pyridinyl)benzamide]
Ratio (RCC4:RCC/VHL) (RCC4/VHL): b (“b” reflects from 10 to 100) | IC50 (RCC4): 1 to 20 µM

Cc1ccc(-c2ccc(S(=O)(=O)NCc3ccc(C(=O)Nc4cccnc4)cc3)cc2)cc1 [Example 53, 4-({[(4′-Methyl[1,1′-biphenyl]-4-yl)sulfonyl]amino}methyl)-N-(3-pyridinyl)benzamide]
Ratio (RCC4:RCC/VHL) (RCC4/VHL): a (“a” reflects a ratio of RCC4/RCC-VHL+ ranging from 1 to 10) | IC50 (RCC4): 1 to 20 µM

O=C(Nc1cccnc1)c1ccc(CNS(=O)(=O)c2ccc(-c3cn(Cc4ccccc4)nn3)cc2)cc1 [Example 102, 4-[({[4-(1-benzyl-1H-1,2,3-triazol-4-yl)phenyl]sulfonyl}amino)methyl]-N-(3-pyridinyl)benzamide]
Ratio (RCC4:RCC/VHL) (RCC4/VHL): a (“a” reflects a ratio of RCC4/RCC-VHL+ ranging from 1 to 10) | IC50 (RCC4): > 20 µM

O=C(Nc1cccnc1)c1ccc(CNS(=O)(=O)c2cccc(Br)c2)cc1 [Example 22, 4-((3-Bromophenylsulfonamido)methyl)-N-(pyridin-3-yl)benzamide]
Ratio (RCC4:RCC/VHL) (RCC4/VHL): b (“b” reflects from 10 to 100) | IC50 (RCC4): < 1 µM

O=C(Nc1cccnc1)c1ccc(CNS(=O)(=O)c2ccccc2Br)cc1 [Example 13, 4-((2-Bromophenylsulfonamido)methyl)-N-(pyridin-3-yl)benzamide]
Ratio (RCC4:RCC/VHL) (RCC4/VHL): a (“a” reflects a ratio of RCC4/RCC-VHL+ ranging from 1 to 10) | IC50 (RCC4): 1 to 20 µM

CN(C)C1Cc2ccc(S(=O)(=O)NCc3ccc(C(=O)Nc4cccnc4)cc3)cc2C1 (centres unmarked) [Example 75, 4-((2-(Dimethylamino)-2,3-dihydro-1H-indene-5-sulfonamido)methyl)-N-(pyridin-3-yl)benzamide]
Ratio (RCC4:RCC/VHL) (RCC4/VHL): c (“c” reflects a ratio of >100) | IC50 (RCC4): < 1 µM

Cc1nnc(-c2cccc(S(=O)(=O)NCc3ccc(C(=O)Nc4cccnc4)cc3)c2)o1 [Example 29, 4-[({[3-(5-Methyl-1,3,4-oxadiazol-2-yl)phenyl]sulfonyl}amino)methyl]-N-(3-pyridinyl)benzamide]
Ratio (RCC4:RCC/VHL) (RCC4/VHL): b (“b” reflects from 10 to 100) | IC50 (RCC4): 1 to 20 µM

O=C(Nc1cccnc1)c1ccc(CNS(=O)(=O)c2cccc(-c3ccccc3)c2)cc1 [Example 26, 4-{[([1,1′-Biphenyl]-3-ylsulfonyl)amino]methyl}-N-(3-pyridinyl)benzamide]
Ratio (RCC4:RCC/VHL) (RCC4/VHL): b (“b” reflects from 10 to 100) | IC50 (RCC4): 1 to 20 µM

O=C(Nc1cccnc1)c1ccc(CNS(=O)(=O)c2ccc(OC(F)(F)F)cc2)cc1 [Example 46, N-(Pyridin-3-yl)-4-((4-(trifluoromethoxy)phenylsulfonamido)methyl)benzamide]
Ratio (RCC4:RCC/VHL) (RCC4/VHL): b (“b” reflects from 10 to 100) | IC50 (RCC4): 1 to 20 µM

Cc1c(C)c(C)c(S(=O)(=O)NCc2ccc(C(=O)Nc3cccnc3)cc2)c(C)c1C [Example 63, 4-((2,3,4,5,6-Pentamethylphenylsulfonamido)methyl)-N-(pyridin-3-yl)benzamide]
Ratio (RCC4:RCC/VHL) (RCC4/VHL): b (“b” reflects from 10 to 100) | IC50 (RCC4): < 1 µM

NCCOCCOCCOCCOCCOCCOCCCc1ccc(S(=O)(=O)NCc2ccc(C(=O)Nc3cccnc3)cc2)cc1 [Example 130, 4-[({[4-(21-Amino-4,7,10,13,16,19-hexaoxahenicos-1-yl)phenyl]sulfonyl}amino)methyl]-N-(3-pyridinyl)benzamide]
Ratio (RCC4:RCC/VHL) (RCC4/VHL): a (“a” reflects a ratio of RCC4/RCC-VHL+ ranging from 1 to 10) | IC50 (RCC4): 1 to 20 µM

O=C(Nc1cccnc1)c1ccc(CNS(=O)(=O)c2ccc(Cl)cc2)cc1 [Example 44, 4-((4-Chlorophenylsulfonamido)methyl)-N-(pyridin-3-yl)benzamide]
Ratio (RCC4:RCC/VHL) (RCC4/VHL): b (“b” reflects from 10 to 100) | IC50 (RCC4): 1 to 20 µM

O=C(Nc1cccnc1)c1ccc(CNS(=O)(=O)c2ccccc2F)cc1 [Example 11, 4-((2-Fluorophenylsulfonamido)methyl)-N-(pyridin-3-yl)benzamide]
Ratio (RCC4:RCC/VHL) (RCC4/VHL): a (“a” reflects a ratio of RCC4/RCC-VHL+ ranging from 1 to 10) | IC50 (RCC4): 1 to 20 µM

C#Cc1ccc(S(=O)(=O)NCc2ccc(C(=O)Nc3cccnc3)cc2)cc1 [Example 95, 4-((4-Ethynylphenylsulfonamido)methyl)-N-(pyridin-3-yl)benzamide]
Ratio (RCC4:RCC/VHL) (RCC4/VHL): b (“b” reflects from 10 to 100) | IC50 (RCC4): 1 to 20 µM

CC(C)(C)c1ccc(S(=O)(=O)NCc2ccc(C(=O)Nc3ccc(N4CCOCC4)nc3)cc2)cc1 [Example 117, 4-({[(4-tert-Butylphenyl)sulfonyl]amino}methyl)-N-[6-(4-morpholinyl)-3-pyridinyl]benzamide]
Ratio (RCC4:RCC/VHL) (RCC4/VHL): a (“a” reflects a ratio of RCC4/RCC-VHL+ ranging from 1 to 10) | IC50 (RCC4): > 20 µM

CC(C)(C)c1ccc(S(=O)(=O)NCc2ccc(C(=O)Nc3cnccc3C(F)(F)F)cc2)cc1 [Example 122, 4-({[(4-tert-Butylphenyl)sulfonyl]amino}methyl)-N-[4-(trifluoromethyl)-3-pyridinyl]benzamide]
Ratio (RCC4:RCC/VHL) (RCC4/VHL): a (“a” reflects a ratio of RCC4/RCC-VHL+ ranging from 1 to 10) | IC50 (RCC4): 1 to 20 µM

COc1ccc(-c2ccc(S(=O)(=O)NCc3ccc(C(=O)Nc4cccnc4)cc3)cc2)cc1 [Example 52, 4-({[(4′-Methoxy[1,1′-biphenyl]-4-yl)sulfonyl]amino}methyl)-N-(3-pyridinyl)benzamide]
Ratio (RCC4:RCC/VHL) (RCC4/VHL): b (“b” reflects from 10 to 100) | IC50 (RCC4): 1 to 20 µM

O=C(Nc1cccnc1)c1ccc(CNS(=O)(=O)c2ccc(-c3ccc(Cl)cc3)cc2)cc1 [Example 56, 4-({[(4′-Chloro[1,1′-biphenyl]-4-yl)sulfonyl]amino}methyl)-N-(3-pyridinyl)benzamide]
Ratio (RCC4:RCC/VHL) (RCC4/VHL): b (“b” reflects from 10 to 100) | IC50 (RCC4): 1 to 20 µM

O=C(Nc1cccnc1)c1ccc(CNS(=O)(=O)c2ccc(I)cc2)cc1 [Example 94, 4-((4-Iodophenylsulfonamido)methyl)-N-(pyridin-3-yl)benzamide]
Ratio (RCC4:RCC/VHL) (RCC4/VHL): a (“a” reflects a ratio of RCC4/RCC-VHL+ ranging from 1 to 10) | IC50 (RCC4): 1 to 20 µM

CCCCOc1ccc(S(=O)(=O)NCc2ccc(C(=O)Nc3cccnc3)cc2)cc1 [Example 34, 4-((4-Butoxyphenylsulfonamido)methyl)-N-(pyridin-3-yl)benzamide]
Ratio (RCC4:RCC/VHL) (RCC4/VHL): b (“b” reflects from 10 to 100) | IC50 (RCC4): < 1 µM

Nc1ccc(S(=O)(=O)NCc2ccc(C(=O)Nc3cccnc3)cc2)cc1 [Example 32, 4-((4-Aminophenylsulfonamido)methyl)-N-(pyridin-3-yl)benzamide]
Ratio (RCC4:RCC/VHL) (RCC4/VHL): b (“b” reflects from 10 to 100) | IC50 (RCC4): 1 to 20 µM

CN(C(=O)c1ccc(CNS(=O)(=O)c2ccccc2)cc1)c1cccnc1 [Example 90, N-Methyl-4-{[(phenylsulfonyl)amino]methyl}-N-(3-pyridinyl)benzamide]
Ratio (RCC4:RCC/VHL) (RCC4/VHL): a (“a” reflects a ratio of RCC4/RCC-VHL+ ranging from 1 to 10) | IC50 (RCC4): 1 to 20 µM

COCC#Cc1ccc(S(=O)(=O)NCc2ccc(C(=O)Nc3cccnc3)cc2)cc1 [Example 98, 4-{[({4-[3-(Methyloxy)-1-propynyl]phenyl}sulfonyl)amino]methyl}-N-(3-pyridinyl)benzamide]
Ratio (RCC4:RCC/VHL) (RCC4/VHL): a (“a” reflects a ratio of RCC4/RCC-VHL+ ranging from 1 to 10) | IC50 (RCC4): 1 to 20 µM

O=C(Nc1cccnc1)c1ccc(CNS(=O)(=O)c2ccc(C(F)(F)F)cc2)cc1 [Example 49, N-(Pyridin-3-yl)-4-((4-(trifluoromethyl)phenylsulfonamido)methyl)benzamide]
Ratio (RCC4:RCC/VHL) (RCC4/VHL): a (“a” reflects a ratio of RCC4/RCC-VHL+ ranging from 1 to 10) | IC50 (RCC4): 1 to 20 µM

CCN(Cc1ccc(C(=O)Nc2cccnc2)cc1)S(=O)(=O)c1ccc(C(C)(C)C)cc1 [Example 139, 4-{[[(4-tert-Butylphenyl)sulfonyl](ethyl)amino]methyl}-N-(3-pyridinyl)benzamide]
Ratio (RCC4:RCC/VHL) (RCC4/VHL): a (“a” reflects a ratio of RCC4/RCC-VHL+ ranging from 1 to 10) | IC50 (RCC4): > 20 µM
